The values that follow come from ChEMBL document CHEMBL1201862, “PubChem BioAssay data set” (2004).

The structures appear in SMILES notation.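 Results reflect a 48-hour exposure of cells in 96-well plates to compound at five concentrations. At the GI50, growth is halved.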 The source made the active and inactive calls. No stated cut-off is given here; in the data, active = GI50 up to about 1.1 µM and inactive = higher.

Holding throughout (assay): NCI-60 cell line screen, 48 h
Assay [1] concerns IGROV-1.
The test system of assay [2] is SNB-19.
The subject of assay [3] is HT-29.
Assay [4] has as its system NCI-H522.
Assay [5] concerns DU-145.
For assay [6], the system named is SF-295.
Assay [7] relates to RPMI-8226.
In assay [8] the test system is SF-539.
Assay [9] relates to MOLT-4.
Assay [10] concerns M14.
Assay [11] concerns HL-60.
The subject of assay [12] is UACC-257.
Assay [13] relates to PC-3.
Assay [14] has as its system K562.
The test system of assay [15] is A498.
Assay [16] relates to COLO 205.
Assay [17] relates to LOX IMVI.
For assay [18], the system named is MDA-MB-231.
The subject of assay [19] is MDA-N.
Assay [20] relates to UACC-62.

As for `O=C1NC(c2cccc(OCc3ccccc3)c2)Nc2ccccc21` (stereo not given), the GI50 was 0.5 µM (active) in [1]; 0.324 µM (active) in [2]; 0.12 µM (active) in [3]; 0.213 µM (active) in assay [4]; 0.172 µM (active) in [5]; 0.114 µM (active) in assay [6]. Moreover, the GI50 is 0.0416 µM (active) in assay [7]; 0.201 µM (active) in assay [8]; 0.23 µM (active) in [9]; 0.181 µM (active) in [10]; < 0.0184 µM (active) in [11]; 1.36 µM (inactive) in [12]. The GI50 in assay [13] was 0.162 µM (active); in [14], 0.0189 µM (active); in [15], 0.259 µM (active); in assay [16], 0.191 µM (active); in [17], 0.252 µM (active); in [18], 0.251 µM (active). Further, the GI50 in [19] is 0.0187 µM (active); in assay [20], 0.495 µM (active).

In the case of `CN1CCc2cc(N)cc3c2C1Cc1ccc(O)c(O)c1-3` (stereo not given), the GI50 in assay [1] was 33.7 µM (inactive); in [2], 46.6 µM (inactive); in assay [3] it was 34.4 µM (inactive); in assay [4], 27.2 µM (inactive); in assay [5], 56.6 µM (inactive); in assay [6] it was 39.8 µM (inactive). Further, the GI50 was 21.8 µM (inactive) in [7]; 38 µM (inactive) in [8]; 3.92 µM (inactive) in [9]; 34 µM (inactive) in assay [10]; 25.8 µM (inactive) in assay [11]; 16.3 µM (inactive) in assay [12]. Moreover, the GI50 in assay [13] was 38.2 µM (inactive); in assay [14], 24.9 µM (inactive); in assay [15], 57.7 µM (inactive); in assay [16], 37.9 µM (inactive); in assay [17], 18.6 µM (inactive); in [18] it was 75 µM (inactive). Moreover, the figures for the GI50 in assay [19] and in assay [20] were 34.7 µM (inactive) and 23.7 µM (inactive), respectively.

With `CN(C)Cc1cc(/N=N/c2ccc(Cl)cc2)cc(CN(C)C)c1O`, the GI50 was 3.38 µM (inactive) in assay [1]; 10.6 µM (inactive) in assay [2]; 6.62 µM (inactive) in [3]; 1.77 µM (inactive) in [4]; 16.9 µM (inactive) in [5]; 11.8 µM (inactive) in assay [6]. Besides, the GI50 in assay [7] is 12.8 µM (inactive); in [8], 10 µM (inactive); in assay [9], 2.75 µM (inactive); in [10] it was 14.5 µM (inactive); in [11], 1.44 µM (inactive); in assay [12], 16.2 µM (inactive). In addition, the GI50 is 5.41 µM (inactive) in assay [13]; 2.52 µM (inactive) in assay [14]; 14.7 µM (inactive) in assay [15]; 3.99 µM (inactive) in assay [16]; 3.1 µM (inactive) in assay [17]; 7.71 µM (inactive) in assay [18]. In addition, the GI50 was 13.2 µM (inactive) in assay [19] and 13.9 µM (inactive) in assay [20].

As for `COc1ccc(/N=C(Nc2ccc(OC)cc2)/C(=N/c2ccc(OC)cc2)Nc2ccc(OC)cc2)cc1`, the GI50 in assay [1], in assay [2], in assay [3], in assay [4], in [5] and in [6] was > 100 µM (inactive) throughout. Moreover, the GI50 in [7] was 5.66 µM (inactive); in [8], > 100 µM (inactive); in assay [9], 4.25 µM (inactive); in [10] it was > 100 µM (inactive); in assay [11], 14.1 µM (inactive); in assay [12], > 100 µM (inactive). For the same molecule, the GI50 in [13] was 3.9 µM (inactive); in assay [14] it was 15 µM (inactive); in assay [15], > 100 µM (inactive); in [16], > 100 µM (inactive); in [17], > 100 µM (inactive); in [18], > 100 µM (inactive). Besides, the GI50 in assay [19] and in [20] was > 100 µM (inactive) each time.

Take `COCOc1cc(OCOC)cc(C(=O)Oc2ccccc2)c1`: the GI50 in assay [1] is > 100 µM (inactive); in assay [2], > 100 µM (inactive); in assay [3], > 100 µM (inactive); in [4] it was 48.3 µM (inactive); in [5], > 100 µM (inactive); in [6], > 100 µM (inactive). For the same molecule, the GI50 in [7] is 61.7 µM (inactive); in [8], > 100 µM (inactive); in [9] it was > 100 µM (inactive); in [10] it was > 100 µM (inactive); in [11], > 100 µM (inactive); in assay [12], > 100 µM (inactive). For the same molecule, the GI50 in assay [13] was 93.8 µM (inactive); in assay [14], > 100 µM (inactive); in assay [15], > 100 µM (inactive); in [16], > 100 µM (inactive); in assay [17], > 100 µM (inactive); in assay [18], > 100 µM (inactive). The GI50 in assay [19] and in assay [20] was > 100 µM (inactive) each time.

In the case of `C=C(C)[C@@H]1CC[C@]2(C)CC[C@]3(C)[C@H](CC[C@@H]4[C@@]5(C)CC[C@H](OC(=O)c6ccccc6)C(C)(C)[C@@H]5CC[C@]43C)[C@@H]12`, the GI50 in assay [1], in assay [2], in assay [3], in assay [4], in [5] and in assay [6] was > 100 µM (inactive) throughout. Also, the GI50 in [7], in assay [8], in assay [9], in assay [10], in assay [11] and in assay [12] was > 100 µM (inactive) throughout. Besides, the GI50 in [13], in [14], in [15], in assay [16], in assay [17] and in assay [18] was > 100 µM (inactive) in each case. In addition, the GI50 in [19] and in assay [20] was > 100 µM (inactive) throughout.

With `N#CC(C#N)=C(N)/C(C#N)=C/c1cc(O)c(O)c(Br)c1`, the GI50 in assay [1] is > 65.2 µM (inactive); in assay [2], > 67.3 µM (inactive); in assay [3], 37.4 µM (inactive); in [4], 40.5 µM (inactive); in assay [5] it was 97.5 µM (inactive); in assay [6] it was > 82 µM (inactive). Further, the GI50 in assay [7] was > 100 µM (inactive); in assay [8], 44.1 µM (inactive); in [9], 36.2 µM (inactive); in assay [10], > 75.9 µM (inactive); in assay [11], 28.1 µM (inactive); in [12], 72.4 µM (inactive). Moreover, the GI50 in assay [13] was 92.5 µM (inactive); in assay [14], 46.6 µM (inactive); in assay [15], > 100 µM (inactive); in assay [16], 52.2 µM (inactive); in [17] it was 42 µM (inactive); in assay [18], 88.5 µM (inactive). Further, the GI50 in [19] was 99.5 µM (inactive); in [20] it was 39.4 µM (inactive).
